Measured values: US20110319384A1, “Pharmaceutical Compositions” (priority 2005, published 2011)
Where two headings read alike, the source gives them in different places.

Columns and labels:
[1] = tested on: patients with major depression with prominent anxiety symptoms; assay: Example 33: double-blind randomized 8-week study, quetiapine augmentation of SSRIs/SNRIs; settings: placebo 28%
Protocol: Patients were also evaluated according to the CGI-S scale for severity, the Global Assessment scale (GAS) and for adverse events (AEs). Patients were evaluated at baseline and at Weeks 1, 2, 4, 6, and 8. Response was defined as a ≧50% reduction in HAM-D or HAM-A total scores from baseline to Week 8. Remission was defined as a HAM-D or HAM-A total score of 7 or lower at Week 8.
In order to be included in the study, patients had to have a DSM-IV diagnosis of major depression (HAM-D score ≧18), a CGI-S score ≧4, and a HAM-A score ≧14. […] Patients who had: (1) a current CNS disorder; (2) significant hepatic, renal or gastrointestinal impairment; (3) acute, unstable or significant and untreated medical conditions; (4) current substance abuse or dependence; or (5) were at risk for suicide were excluded. Pregnant or breast-feeding women were excluded also.

[2] = tested on: patients with treatment-resistant depression; assay: Example 32: 8-week double-blind randomized placebo-controlled study, quetiapine added to SSRI/SNRI
Description: Pregnant or lactating women, or those who were planning on becoming pregnant were not allowed to participate either. Participation in a clinical research study within 90 days of the start of this study also precluded applicants from participating. […] The primary efficacy endpoint for this study was HAM-D score at Week 8. Secondary endpoints included: (1) response (≧50% reduction in HAM-D score) and remission (HAM-D score <7) rates; (2) final Montgomery-Asberg Rating Scale score (MADRS); (3) CGI-S scores; and (4) CGI-I scores. Efficacy was assessed at baseline, then at Weeks 1, 2, 3, 4, 6, and 8. Adverse events (AEs) were also monitored.

patients with GAD = settings: hypothesis to be tested
[3] = tested on: patients with treatment resistant or non-remitted GAD
Description: The study population was limited to GAD patients who had not remitted following at least 8 weeks of therapeutic doses of conventional therapy. Conventional therapy includes treatment with one of the following: citalopram, escitalopram, paroxetine, paroxetine CR, venlafaxine XR, sertraline, mirtazapine, fluoxetine, fluvoxamine, or no medication at all. Each patient provided informed consent and was observed on an outpatient basis.
The study population was comprised of patients between the ages of 22 and 61. Forty-eight percent of the study population was male and fifty-two percent was female. […] Patients with other psychiatric disorders, subjective suicidal tendencies, a Montgomery-Asberg Depression Rating Scale (MADRS) score >19, or serious medical conditions were excluded from the study. In addition, pregnant or lactating women and those who took medications prohibited by the study design (e.g., psychoactive substances and oral antipsychotics) within 2 weeks of the original screening were also excluded.
The mean change from baseline to Week 12 in HAM-A total scores was the primary endpoint. […] These additional efficacy assessments were all measured from baseline to Week 12.

[4] = tested on: patients with residual anxiety and depression despite SSRI treatment
[5] = tested on: patients with Social Anxiety Disorder (SAD)
[6] = adjunct to conventional therapy
[7] = adjunct to conventional therapy, mean dose 386 mg/day

## OCCOCCN1CCN(C2=Nc3ccccc3Sc3ccccc32)CC1 [quetiapine, 11-[4-[2-(2-hydroxyethoxy)ethyl]-1-piperazinyl]-dibenzo[b,f][1,4]thiazepine]
[1]
  response rate as assessed by HAM-A (≧50% reduction to Week 8): 62%
  response rate as assessed by HAM-D (≧50% reduction to Week 8): 48%
[2]; added to SSRI/SNRI, Week 8, placebo about 15
  mean HAM-D score at study end: about 8
[2]; added to SSRI/SNRI, placebo about 24
  mean MADRS score at study end: about 15
[2]; in vivo
  mean weight gain: about 6 kg
  most common side effects: fatigue, dry mouth, and sedation/somnolence
  patients who withdrew from the study due to serious adverse events: No patients
  tolerability: generally well-tolerated
[2]; placebo 3.5
  final mean CGI-I score: 2.5
[2]; placebo 3.8
  final mean CGI-S score: 2.8
[2]; placebo 15%
  patients who achieved remission (HAM-D score <7): 43%
[2]; placebo 27%
  patients who responded to treatment (≧50% reduction in HAM-D score): 67%
Patients with GAD; compared to escitalopram
  Adverse events of nausea or vomiting: lower levels of nausea and
  Incidence of withdrawals due to adverse events: Quetiapine has similar
  Sexual dysfunction: change from randomization in CSFQ total score at Day 57: lower levels of sexual
Patients with GAD; compared to placebo
  Somnolence: severity of AEs, time of first instance, withdrawals due to AE of somnolence: generally mild, occurs early in
Patients with GAD; compared to placebo, Day 4
  Change from randomization in HAM-A total score, HAM-A psychic cluster, HAM-A somatic cluster and CGI-S score at Day 4: anti-anxiety effect by Day 4
Patients with GAD; depressive symptoms in GAD, vs placebo
  Change from randomization in MADRS total score at Day 57: Quetiapine is more effective
Patients with GAD; discontinuation symptoms
  Adverse events related to discontinuation; change in Discontinuation-Emergent Signs and Symptoms total score at Day 64 and Day 71: Quetiapine does not have
Patients with GAD; once daily up to 300 mg/day
  Change from normal to Clinically Important in Physical Examinations; Laboratory values; Vital signs; ECGs: 300 mg/day is safe and well
Patients with GAD; patient satisfaction, vs placebo
  Change from randomization in Q-les-Q Item 15 (Satisfaction with medication) at Day 57: Quetiapine is more effective
Patients with GAD; quality of life, vs placebo
  Change from randomization in Q-les-Q total score and Q-les-Q Item 16 (Overall life satisfaction) at Day 57: Quetiapine is more effective
Patients with GAD; response rate vs placebo, Day 4
  HAM-A Response (decrease from randomization total score of = 50%) at Day 4: Quetiapine has a greater
Patients with GAD; response rate vs placebo, Day 57
  HAM-A Response (decrease from randomization total score of = 50%) at Day 57: Quetiapine has a greater
Patients with GAD; vs placebo
  Adverse events of nausea or vomiting: placebo levels of nausea and
  Adverse events related to EPS (including akathisia); change in SAS and BARS scores at Day 57: placebo levels of EPS
  HAM-A Remission (HAM-A total score = 7) at Day 57: Quetiapine is better than
  Sexual dysfunction: change from randomization in CSFQ total score at Day 57: placebo levels of sexual
Patients with GAD; vs placebo, across anxiety symptoms
  Change from randomization in CGI-S score, CGI-I (much or very much improved), HAM-A psychic and somatic clusters at Day 57: Quetiapine is more effective
[3]; [6]
  Dysfunctional Beliefs and Attitudes about Sleep Scale (DBAS) mean at Week 12: about 73
  Dysfunctional Beliefs and Attitudes about Sleep Scale (DBAS) mean at baseline: about 88
  PSQI (sleep quality) baseline mean: about 17
  PSQI (sleep quality) mean in Week 12: about 7
  Penn State Worry Questionnaire (PSWQ) mean at Week 12: about 44
  Penn State Worry Questionnaire (PSWQ) mean at baseline: about 53
[3]; [7]
  mean HAM-A total score after 12 weeks of treatment: about 9
  mean HAM-A total score at baseline: about 30
[3]; baseline to Week 12
  improvement in mean Sheehan Disability Inventory (SDI) scores (work, family, social interactions): about 2
  mean total weight gain and BMI: slight increases
[3]; in vivo
  patients who entered the study reporting sedation as an adverse event: Forty
  serious adverse events: no serious adverse events were reported
  vital signs or laboratory assessments: no clinically significant changes
[3]; of 50 patients eligible for inclusion
  patients who withdrew due to adverse events: seven
[3]; of the patients withdrawn for adverse events
  patients who withdrew because of sedation: five
[4]; added to stable SSRI
  mean HAM-A score after 9 weeks of treatment: about 6
  mean HAM-A score at baseline: about 25
  mean HAM-D score after 9 weeks of treatment: about 6
  mean HAM-D score at baseline: about 20
  mean State Anxiety Inventory (SAI) score after 9 weeks of treatment: about 30
  mean State Anxiety Inventory (SAI) score at baseline: about 51
[4]; in vivo
  BARS or SAS scores: no clinically relevant changes
  discontinuation as a result of an adverse event: no patient discontinued therapy
  most common side effects: Drowsiness, mild dry mouth, and constipation
  reduction in scores, HAM-A individual subjects analysis: ≥ 50%
  serious adverse events: No serious adverse events occurred
  weight gain: minimal for all patients but one
[5]; in vivo
  BSPS scores versus placebo at baseline or endpoint: no significant differences
  SPIN or SDI scores versus placebo at baseline or endpoint: no significant difference
  mean CGI-I scores at endpoint versus placebo: no significant difference
  most frequent side effects: drowsiness, dizziness, and nausea
  serious adverse events: No serious adverse events were reported
[5]; placebo 0%
  patients who scored a 1 or 2 on the CGI-I scale: 40%
[5]; placebo 0%, mean final dose 147 mg twice a day
  patients experiencing a ≧50% drop in BSPS score at endpoint compared with baseline: 20%
